Reference: patent publication US20180333401A1, “METHODS OF TREATING LIVER DISEASE” (Gilead Sciences, Inc., priority 2017, published 2018)
Marks after values point to notes of the source that are not given here.

How the values were obtained:
Assay type in all cases: in vivo, human
[1] = test system: hepatic proton density fat fraction (PDFF); experiment: Hepatic fat by MRI-PDFF, proof of concept study in subjects with NASH; settings: for PDFF compared with BL (in words): 12 weeks; for MRI-PDFF, median relative (%) change from BL / ≥30% reduction in MRI-PDFF, % of subjects: W12, orally QD for 12 weeks
Protocol: (§1) 70 subjects with NASH diagnosed by a hepatic proton density fat fraction (PDFF) ≥10% and liver stiffness ≥2.88 kPa by MRE, or liver biopsy consistent with NASH and stage 2-3 fibrosis were enrolled. Successive cohorts received monotherapy with Formula (II) 18 mg, Formula (VII) 20 mg, or Formula (V) 30 mg (n=10/cohort), or combination therapy with Formula (II)+Formula (VII) (18/20 mg) or Formula (II)+Formula (V) (18/30 mg) (n=20/cohort) orally QD for 12 weeks. Centrally-read PDFF and MRE, and serum fibrosis markers were measured at baseline (BL), W4 and W12. Deuterated water was administered to measure fractional synthesis of lipids (de novo lipogenesis [DNL]) and fibrosis-related markers (data are pending).

[2] = Safety (AEs), proof of concept study in subjects with NASH; settings: over 12 weeks, orally QD
Protocol: as §1

TIMP-1, PIII-NP = experiment: Serum fibrosis markers (TIMP-1, PIII-NP), proof of concept study in subjects with NASH; settings: for PIII-NP, median relative (%) change from BL / TIMP-1, median relative (%) change from BL: serum, W12, orally QD for 12 weeks
Protocol: as §1

ALT, GGT = experiment: Liver biochemistry (ALT, GGT), proof of concept study in subjects with NASH; settings: for ALT, median relative (%) change from BL / GGT, median relative (%) change from BL: W12, orally QD for 12 weeks
Protocol: as §1

liver stiffness = experiment: Liver stiffness by MRE, proof of concept study in subjects with NASH; settings: W12, orally QD for 12 weeks
Protocol: as §1

Structure (SMILES)	PDFF compared with BL (in words) [1]	MRI-PDFF, median relative (%) change from BL [1]	≥30% reduction in MRI-PDFF, % of subjects [1] [%]	Grade 2 or higher AE, % of subjects [2] [%]	PIII-NP compared with BL (in words) (TIMP-1, PIII-NP; 12 weeks)	TIMP-1 compared with BL (in words) (TIMP-1, PIII-NP; 12 weeks)	PIII-NP, median relative (%) change from BL (TIMP-1, PIII-NP) [%]	TIMP-1, median relative (%) change from BL (TIMP-1, PIII-NP)	ALT compared with BL (in words) (ALT, GGT; 12 weeks)	ALT, median relative (%) change from BL (ALT, GGT) [%]	GGT, median relative (%) change from BL (ALT, GGT)	MRE, median relative (%) change from BL (liver stiffness) [%]	GGT compared with BL (in words) (ALT, GGT; 12 weeks)
Cc1cc(F)c(C(=O)Nc2cccc(-c3nncn3[C@@H](C)CF)n2)cc1-n1cnc(C2CC2)c1 [Formula (VII)]	significant improvements	−42.7* %	70	40	non-significant reductions	significant improvements	−11.9	−11.6* %	non-significant reductions	−33.5	−1.6%	−8.9	–
O=C(O)c1ccnc(N2CC(O)(c3ccc(OCc4c(-c5c(Cl)cccc5Cl)noc4C4CC4)cc3Cl)C2)c1 [Formula (V)]	reduced	−15.6* %	0	40	–	–	8.8	6.6* %	reduced	−29.7	−19.3* %	−8.3	reduced
Cc1cc(F)c(C(=O)Nc2cccc(-c3nncn3C(C)C)n2)cc1-n1cnc(C2CC2)c1 [Formula (II)]	–	7.1%	10	40	–	–	−8.7	2.6%	–	−1.2	−4.4%	−8.6	–
